Key:
[1] = target: Proto-oncogene tyrosine-protein kinase receptor Ret (Homo sapiens, UniProt P07949); experiment: Inhibition of wild type RET (unknown origin) by FRET-based ZLyte kinase assay
[2] = target: Proto-oncogene tyrosine-protein kinase receptor Ret (Homo sapiens, UniProt P07949, V804L); experiment: Inhibition of RET V804L mutant (unknown origin) by FRET-based ZLyte kinase assay
[3] = target: Proto-oncogene tyrosine-protein kinase receptor Ret (Homo sapiens, UniProt P07949, M918T); experiment: Inhibition of RET M918T mutant (unknown origin) by FRET-based ZLyte kinase assay
Chain of Proto-oncogene tyrosine-protein kinase receptor Ret (Homo sapiens, UniProt P07949, M918T) (P07949 29-1114 M918T limits assumed): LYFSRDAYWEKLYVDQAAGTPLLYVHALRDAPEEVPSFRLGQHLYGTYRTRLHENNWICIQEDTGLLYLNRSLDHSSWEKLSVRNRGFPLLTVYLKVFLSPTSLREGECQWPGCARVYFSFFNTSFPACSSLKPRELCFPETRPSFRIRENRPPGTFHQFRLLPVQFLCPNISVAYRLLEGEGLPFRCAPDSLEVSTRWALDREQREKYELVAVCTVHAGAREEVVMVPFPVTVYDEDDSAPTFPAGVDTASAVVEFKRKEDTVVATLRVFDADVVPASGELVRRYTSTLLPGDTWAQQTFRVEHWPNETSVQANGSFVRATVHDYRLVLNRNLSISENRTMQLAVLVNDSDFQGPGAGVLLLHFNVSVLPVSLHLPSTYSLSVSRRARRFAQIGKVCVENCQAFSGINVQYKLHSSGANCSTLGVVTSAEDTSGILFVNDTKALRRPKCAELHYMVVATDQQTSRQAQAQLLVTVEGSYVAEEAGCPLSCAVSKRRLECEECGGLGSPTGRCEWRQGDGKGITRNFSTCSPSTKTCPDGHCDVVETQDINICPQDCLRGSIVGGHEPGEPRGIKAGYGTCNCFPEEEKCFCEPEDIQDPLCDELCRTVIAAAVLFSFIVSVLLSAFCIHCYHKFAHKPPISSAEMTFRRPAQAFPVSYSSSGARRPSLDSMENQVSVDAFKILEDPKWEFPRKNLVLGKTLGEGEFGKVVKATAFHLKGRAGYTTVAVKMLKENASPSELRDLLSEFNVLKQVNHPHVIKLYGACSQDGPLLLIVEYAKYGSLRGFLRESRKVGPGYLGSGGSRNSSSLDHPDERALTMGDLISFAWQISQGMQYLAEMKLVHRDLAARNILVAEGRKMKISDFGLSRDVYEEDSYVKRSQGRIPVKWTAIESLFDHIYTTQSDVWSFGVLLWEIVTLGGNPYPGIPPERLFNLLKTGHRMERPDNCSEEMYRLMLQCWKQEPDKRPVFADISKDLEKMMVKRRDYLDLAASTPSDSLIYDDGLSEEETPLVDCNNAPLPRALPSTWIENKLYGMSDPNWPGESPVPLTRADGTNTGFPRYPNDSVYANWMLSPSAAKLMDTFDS

[4] = target: Proto-oncogene tyrosine-protein kinase receptor Ret (Homo sapiens, UniProt P07949, G810R); experiment: Inhibition of RET G810R mutant (unknown origin) by FRET-based ZLyte kinase assay
Chain of Proto-oncogene tyrosine-protein kinase receptor Ret (Homo sapiens, UniProt P07949, G810R) (P07949 29-1114 G810R limits assumed): as the sequence (P07949 29-1114 M918T limits assumed) above, with G782R, T890M counted along it

[5] = tested on: Proto-oncogene tyrosine-protein kinase receptor Ret (Homo sapiens), P07949 [G810R]; experiment: Potency index, ratio of selpercatinib IC50 to test compound IC50 for inhibition of RET G810R mutant (unknown origin) by FRET-based ZLyte kinase assay
Chain of Proto-oncogene tyrosine-protein kinase receptor Ret (Homo sapiens), P07949 [G810R] (P07949 whole entry G810R): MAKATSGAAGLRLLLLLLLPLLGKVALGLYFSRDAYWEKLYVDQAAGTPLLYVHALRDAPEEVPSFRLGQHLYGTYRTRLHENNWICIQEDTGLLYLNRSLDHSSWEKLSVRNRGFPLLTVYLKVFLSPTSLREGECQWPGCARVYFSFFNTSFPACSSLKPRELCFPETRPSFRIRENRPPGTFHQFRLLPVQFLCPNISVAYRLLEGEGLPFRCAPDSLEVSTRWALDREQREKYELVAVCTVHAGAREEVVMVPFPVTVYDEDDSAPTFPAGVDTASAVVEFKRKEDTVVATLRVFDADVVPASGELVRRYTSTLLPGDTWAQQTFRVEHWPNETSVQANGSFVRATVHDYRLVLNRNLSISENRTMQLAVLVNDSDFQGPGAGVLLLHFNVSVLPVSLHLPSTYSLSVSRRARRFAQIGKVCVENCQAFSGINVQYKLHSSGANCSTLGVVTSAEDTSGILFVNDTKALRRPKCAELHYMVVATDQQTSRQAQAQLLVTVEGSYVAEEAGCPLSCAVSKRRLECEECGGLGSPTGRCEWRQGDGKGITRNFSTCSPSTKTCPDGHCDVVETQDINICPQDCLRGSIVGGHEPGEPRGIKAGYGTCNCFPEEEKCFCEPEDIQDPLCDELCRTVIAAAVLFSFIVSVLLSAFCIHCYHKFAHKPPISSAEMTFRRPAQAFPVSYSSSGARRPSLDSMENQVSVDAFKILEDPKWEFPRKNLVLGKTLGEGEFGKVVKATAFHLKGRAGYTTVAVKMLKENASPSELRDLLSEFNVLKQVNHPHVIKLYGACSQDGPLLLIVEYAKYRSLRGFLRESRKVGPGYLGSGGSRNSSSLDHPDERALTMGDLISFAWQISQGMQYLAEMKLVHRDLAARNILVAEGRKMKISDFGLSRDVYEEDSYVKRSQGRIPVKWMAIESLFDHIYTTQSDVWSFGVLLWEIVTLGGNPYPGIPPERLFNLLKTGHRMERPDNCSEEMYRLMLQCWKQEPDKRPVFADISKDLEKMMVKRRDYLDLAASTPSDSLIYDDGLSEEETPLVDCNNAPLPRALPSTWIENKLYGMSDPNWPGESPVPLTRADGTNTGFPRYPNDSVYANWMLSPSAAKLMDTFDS

Chain of Proto-oncogene tyrosine-protein kinase receptor Ret (Homo sapiens, UniProt P07949, V804L) (P07949 29-1114 V804L limits assumed): as the sequence (P07949 29-1114 M918T limits assumed) above, with V776L, T890M counted along it
Chain of Proto-oncogene tyrosine-protein kinase receptor Ret (Homo sapiens, UniProt P07949) (P07949 whole entry): as the sequence (P07949 whole entry G810R) above, with R810G counted along it

| SMILES | IC50 [1] [nM] | IC50 [2] [nM] | IC50 [3] [nM] | IC50 [4] [nM] | Ratio IC50 [5] |
| --- | --- | --- | --- | --- | --- |
| COc1ccc(CN2C3CC2CN(c2ccc(-c4nc(-c5cnn(C)c5)cc5ncccc45)cn2)C3)cc1N | 166 | 86.4 | 176 | – | – |
| Cc1ccc(CN2C3CC2CN(c2ccc(-c4nc(-c5cnn(C)c5)cc5ncccc45)cn2)C3)cn1 | 12.5 | 14.4 | 16.2 | 437 | – |
| Cn1cc(-c2cc3ncccc3c(-c3ccc(N4CC5CC(C4)N5Cc4cccnc4)nc3)n2)cn1 | 26.7 | 41.1 | 33.5 | 371 | – |
| COc1ccc(CN2C3CC2CN(c2ccc(-c4nc(-c5cnn(C)c5)cc5ncccc45)cn2)C3)cc1F | 5.5 | 0.3 | 0.6 | 37.8 | 6 |
| COc1ccc(CN2C3CC2CN(c2ccc(-c4nc(-c5cc[nH]n5)cc5ncccc45)cn2)C3)cn1 | 68.2 | 55.7 | 49.7 | 109 | – |
| COc1ccc(CN2C3CC2CN(c2ccc(-c4nc(Cl)cc5ncccc45)cn2)C3)cn1 | 69.3 | 57.2 | 58.4 | 229 | – |
| COc1ccc(CN2C3CC2CN(c2ccc(-c4nc(-c5cnn(C)c5)cc5ncccc45)cn2)C3)cc1C(F)(F)F | 37.5 | 22.6 | 14.7 | 116 | – |
| COc1ccc(CN2C3CC2CN(c2ccc(-c4nc(-c5cn[nH]c5)cc5ncccc45)cn2)C3)cn1 | 5.9 | 1.1 | 6.5 | 69.1 | 4 |
| Cn1cc(-c2cc3ncccc3c(-c3ccc(N4CC5CC(C4)N5C(=O)CN4CCOCC4)nc3)n2)cn1 | 112 | 121 | 107 | – | – |
| COc1ccc(CN2C3CC2CN(c2ccc(-c4nc(-c5cnn(C)c5)cc5ncccc45)cn2)C3)cc1Br | 41.3 | 13.7 | 17.2 | 107 | – |
| Cn1cc(-c2cc3ncccc3c(-c3ccc(N4CC5CC(C4)N5C(=O)CC4CCOCC4)nc3)n2)cn1 | 62.2 | 91.4 | 54.9 | – | – |
| COc1ccc(CN2C3CC2CN(c2ccc(-c4cccc5c4OCCO5)cn2)C3)cn1 | > 1000 | > 1000 | > 1000 | – | – |
| Cn1cc(-c2cc3ncccc3c(-c3ccc(N4CC5CC(C4)N5Cc4ccc(Cl)nc4)nc3)n2)cn1 | 9.8 | 2.3 | 5.1 | 361 | – |
| COc1ccc(CN2C3CC2CN(c2ccc(-c4nc(-c5ccc(F)cc5)cc5ncccc45)cn2)C3)cn1 | 242 | 517 | 408 | – | – |
| COc1ccc(CN2C3CC2CN(c2ccc(-c4nc(-c5ccncc5)cc5ncccc45)cn2)C3)cn1 | 166 | 328 | 215 | – | – |
| Cn1cc(-c2cc3ncccc3c(-c3ccc(N4CC5CC(C4)N5Cc4ccc(F)nc4)nc3)n2)cn1 | 16.8 | 5.6 | 9.3 | 237 | – |

— ChEMBL document CHEMBL6127078, “Discovery of 7-(1-methyl-1H-pyrazol-4-yl)-1,6-naphthyridine derivatives as potent inhibitors of rearranged during transfection (RET) and RET solvent-front mutants for overcoming selpercatinib resistance” (Eur J Med Chem, 2024)
